The supplement of paper PMC10331698
± gives the standard deviation of the averaged measurements.

Experiments:
Experiment in all cases: level (log10 ratio to DMSO vehicle control); higher = higher biomarker level / cell amount than vehicle control
Details in all cases: in DMSO
[1] = compound: C=CC(=O)OCC(F)(F)C(F)(F)C(F)(F)C(F)(F)C(F)(F)C(F)(F)C(F)(F)F [1H,1H-Perfluorooctyl acrylate]
Protocol: (§1)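 BioMAP Diversity Plus panel of 12 human primary cell co-culture systems (3C, 4H, LPS, SAg, BT, BF4T, BE3C, CASM3C, HDF3CGF, KF3CT, MyoF, Mphg). Compounds were added 1 h before stimulation and left for 24 h (MyoF 48 h; BT 72 h for soluble read-outs or 6 d for IgG). Biomarkers were read by ELISA, cytotoxicity by SRB, PBMC viability and proliferation by Alamar Blue. Each well value was divided by the mean of 8 DMSO control wells on the same plate and log10 transformed; duplicate blinded samples were tested at 4 concentrations.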

[2] = compound: COC(=O)CCC(F)(F)C(F)(F)C(F)(F)C(F)(F)F [Methyl 2H,2H,3H,3H-perfluoroheptanoate]
Protocol: as §1

[3] = compound: FC(F)(F)C(F)(C(F)(F)F)C(F)(F)C(F)(F)CC1CO1 [3-(Perfluoro-3-methylbutyl)-1,2-propenoxide]
Protocol: as §1

Heptafluorobutyramide = compound: NC(=O)C(F)(F)C(F)(F)C(F)(F)F [Heptafluorobutyramide]
Protocol: as §1

Pentafluoropropionamide = compound: NC(=O)C(F)(F)C(F)(F)F [Pentafluoropropionamide]
Protocol: as §1

[4] = compound: O=C(O)C(F)(F)C(F)(F)C(F)(F)OC(F)(C(F)(F)F)C(F)(F)F [Perfluoro-4-isopropoxybutanoic acid]
Protocol: as §1

[5] = compound: OCCC(F)(F)C(F)(F)C(F)(F)C(F)(F)C(F)(F)C(F)(F)F [6:2 Fluorotelomer alcohol]
Protocol: as §1

| Test System | level (log10) ([1]; 6700 nM) | level (log10) ([1]; 20000 nM) | level (log10) ([1]; 60000 nM) | level (log10) ([2]; 6700 nM) | level (log10) ([2]; 20000 nM) | level (log10) ([2]; 60000 nM) | level (log10) ([3]; 6700 nM) | level (log10) ([3]; 20000 nM) | level (log10) (Heptafluorobutyramide; 6700 nM) | level (log10) (Heptafluorobutyramide; 20000 nM) | level (log10) (Heptafluorobutyramide; 60000 nM) | level (log10) (Pentafluoropropionamide; 6700 nM) | level (log10) (Pentafluoropropionamide; 20000 nM) | level (log10) (Pentafluoropropionamide; 60000 nM) | level (log10) ([4]; 6700 nM) | level (log10) ([4]; 20000 nM) | level (log10) ([4]; 60000 nM) | level (log10) ([5]; 6700 nM) | level (log10) ([5]; 20000 nM) |
| --- | --- | --- | --- | --- | --- | --- | --- | --- | --- | --- | --- | --- | --- | --- | --- | --- | --- | --- | --- |
| lMphg:CCL2/MCP-1 | -0.0065 ± 0.039 | -0.016 ± 0.0057 | 0.002 ± 0.03 | -0.004 ± 0.0085 | -0.011 ± 0.011 | 0.003 ± 0.031 | -0.0165 ± 0.012 | 0.0075 ± 0.012 | -0.0035 ± 0.0021 | -0.001 ± 0.038 | 0.0175 ± 0.042 | -0.0145 ± 0.0035 | -0.012 ± 0.0042 | 0 ± 0.03 | -0.018 ± 0.0042 | -0.0185 ± 0.0092 | 0.0175 ± 0.0078 | -0.019 ± 0.0042 | -0.025 ± 0.016 |
| lMphg:CCL3/MIP-1alpha | 0.0215 ± 0.028 | 0.04 ± 0.0071 | 0.057 ± 0.0099 | -0.0315 ± 0.005 | -0.013 ± 0.0028 | -0.004 ± 0.045 | -0.007 ± 0.0042 | 0.0345 ± 0.023 | -0.0235 ± 0.039 | -0.035 ± 0.024 | -0.0015 ± 0.00071 | -0.011 ± 0.011 | -0.0175 ± 0.0064 | 0.017 ± 0.045 | -0.035 ± 0.0085 | -0.0355 ± 0.029 | -0.005 ± 0.037 | -0.0295 ± 0.0064 | -0.0295 ± 0.021 |
| lMphg:CD40 | -0.0125 ± 0.049 | -0.0125 ± 0.097 | -0.0635 ± 0.039 | -0.0295 ± 0.0035 | -0.0285 ± 0.005 | -0.039 ± 0.034 | -0.0105 ± 0.028 | -0.021 ± 0.011 | -0.021 ± 0.011 | -0.0185 ± 0.037 | -0.0025 ± 0.025 | -0.0235 ± 0.022 | -0.017 ± 0.011 | -0.0115 ± 0.013 | -0.012 ± 0.013 | -0.041 ± 0.034 | -0.027 ± 0.035 | -0.029 ± 0.0057 | -0.0435 ± 0.025 |
| lMphg:CD62E/E-Selectin | -0.0075 ± 0.023 | 0.004 ± 0.017 | -0.004 ± 0.021 | -0.004 ± 0.0028 | -0.0245 ± 0.016 | -0.0075 ± 0.018 | 0.0085 ± 0.019 | 0.0025 ± 0.013 | 0.035 ± 0.051 | -0.009 ± 0.064 | -0.0285 ± 0.054 | -0.018 ± 0.0014 | 0.016 ± 0.014 | -0.013 ± 0.0071 | -0.011 ± 0.027 | 0.007 ± 0.038 | 0.0005 ± 0.039 | -0.0545 ± 0.011 | 0.0005 ± 0.043 |
| lMphg:CD69 | -0.0255 ± 0.012 | -0.016 ± 0.033 | -0.0135 ± 0.013 | -0.016 ± 0.028 | -0.029 ± 0.033 | 0.006 ± 0.017 | -0.0115 ± 0.054 | -0.0375 ± 0.069 | -0.0155 ± 0.022 | -0.0145 ± 0.044 | 0.0115 ± 0.066 | -0.021 ± 0.0071 | -0.036 | 0.0125 ± 0.077 | -0.044 ± 0.014 | -0.069 ± 0.021 | -0.0455 ± 0.054 | -0.0205 ± 0.0078 | -0.017 ± 0.0028 |
| lMphg:CD106/VCAM-1 | -0.0115 ± 0.022 | -0.001 ± 0.018 | -0.0145 ± 0.037 | -0.0055 ± 0.012 | 0.009 ± 0.0057 | 0.0055 ± 0.037 | 0.005 | -0.0115 ± 0.022 | 0.011 ± 0.014 | 0.004 ± 0.0071 | 0.013 ± 0.0028 | 0.0015 ± 0.033 | -0.009 ± 0.021 | -0.0045 ± 0.043 | -0.0135 ± 0.013 | 0.0015 ± 0.028 | 0.014 ± 0.0057 | -0.016 ± 0.0028 | -0.0155 ± 0.013 |
